Experimental data: US9586907B2, “Isothiocyanate compounds, pharmaceutical compositions, and uses thereof” (priority 2006, dated 2017)
≈ marks a conversion by molar mass, not a printed value. Where two headings read alike, the source gives them in different places.

Experiments:
Type in all cases: cell-based
[1] = system: clinical isolates of bacteria and fungus (including yeasts); experiment: General antimicrobial activity, semi-quantitative score on collection of clinical isolates; conditions: for antimicrobial / growth-inhibitory activity (in words): Table 1 screen; for General antimicrobial activity: key: −: indicating no activity; +++++: indicating highest activity
Experimental: The growth inhibitory effect of a number of various ITC compounds were tested on large collection of clinical isolates of bacteria and fungus (including yeasts), in order to establish a systematic structure-activity relationship for the ITC compounds. […] To assess the average activity for an individual ITC compound, the semi-quantitative score was calculated for each compound based on the number of sensitive bacterial strains at concentrations of 100 and 200 μM.

M. intracellularie = experiment: MIC, M. intracellularie
M. avium = experiment: MIC, M. avium
M. scrofulaceum = experiment: MIC, M. scrofulaceum
M. cansassi = experiment: MIC, M. cansassi
M. fortuitum = experiment: MIC, M. fortuitum
M. tuberculosis W4 = experiment: MIC, M. tuberculosis W4
Experimental: (§1) Next, several of the bifunctional ITC compounds were tested for their ability to inhibit the growth of some clinical isolates of Mycobacteria, the results of which are summarized in Table 3 below.

M. tuberculosis 210 = experiment: MIC, M. tuberculosis 210
Experimental: as §1

M. tuberculosis W = experiment: MIC, M. tuberculosis W
Experimental: as §1

M. tuberculosis H37Rv = experiment: MIC, M. tuberculosis H37Rv
Experimental: as §1

M. tuberculosis CDC1551 = experiment: MIC, M. tuberculosis CDC1551
Experimental: as §1

M. tuberculosis P = experiment: MIC, M. tuberculosis P
Experimental: as §1

M. tuberculosis AB = experiment: MIC, M. tuberculosis AB
Experimental: as §1

M. bovis BCG = experiment: microbe, parasite or virus in culture
[2] = Mycobacterium tuberculosis, read-out: MIC

Structure (SMILES): CCCCN=C=S [Compound 7, CH3CH2CH2CH2—N═C═S, reference compound]
- antimicrobial / growth-inhibitory activity (in words) [1]: very little activity

Structure (SMILES): CN=C=S [Compound 8, CH3—N═C═S, reference compound]
- antimicrobial / growth-inhibitory activity (in words) [1]: very little activity

Structure (SMILES): O=C(O)c1cc(N=C=S)ccc1-c1c2ccc(O)cc2cc2cc(O)ccc12 [Compound 14, reference compound]
- antimicrobial / growth-inhibitory activity (in words) [1]: poor growth-inhibitory activity

Structure (SMILES): C=CCN=C=S [Compound 22, CH2═CH2CH2—N═C═S, reference compound]
- antimicrobial / growth-inhibitory activity (in words) [1]: very little activity

Structure (SMILES): O=C=NCc1ccccc1 [Compound 23, reference compound]
- antimicrobial / growth-inhibitory activity (in words) [1]: Neither of the chemically related derivatives—isocyanate (Compound 23) or thiocyanate (Compound 25)—displayed any activity
- General antimicrobial activity ([1]; semi-quantitative score from number of sensitive bacterial strains at 100 and 200 μM, deduced from number of sensitive bacterial species and average MIC): −

Structure (SMILES): S=C=NCC12CC3CC(CC(C3)C1)C2 [Compound 35]
- antimicrobial / growth-inhibitory activity (in words) [1]: poor growth-inhibitory activity

Structure (SMILES): S=C=NCCCCCCN=C=S [Compound 40, S═C═N—(CH2)6—N═C═S]
- MIC (M. intracellularie; M. intracellularie): 32 µg/mL (≈ 160 µM)
- MIC (M. avium; M. avium): 32 µg/mL (≈ 160 µM)
- MIC (M. scrofulaceum; M. scrofulaceum): 32 µg/mL (≈ 160 µM)
- MIC (M. cansassi; M. cansassi): 8 µg/mL (≈ 39.9 µM)
- MIC (M. fortuitum; M. fortuitum): 16 µg/mL (≈ 79.9 µM)
- MIC (M. tuberculosis W4): 2 µg/mL (≈ 9.98 µM)
- MIC (M. tuberculosis 210): 2 µg/mL (≈ 9.98 µM)
- MIC (M. tuberculosis W): 0.5 µg/mL (≈ 2.5 µM)
- MIC (M. tuberculosis H37Rv): 2 µg/mL (≈ 9.98 µM)
- MIC (M. tuberculosis CDC1551): 4 µg/mL (≈ 20 µM)
- MIC (M. tuberculosis P): 2 µg/mL (≈ 9.98 µM)
- MIC (M. tuberculosis AB): 4 µg/mL (≈ 20 µM)
- MIC (M. bovis BCG): 2 µg/mL (≈ 9.98 µM)

Structure (SMILES): CO[C@H]1/C=C/O[C@@]2(C)Oc3c(C)c(O)c4c(O)c(c(/C=N/N5CCN(C)CC5)c(O)c4c3C2=O)NC(=O)/C(C)=C\C=C\[C@H](C)[C@H](O)[C@@H](C)[C@@H](O)[C@@H](C)[C@H](OC(C)=O)[C@@H]1C [Rif, Rifampicin, reference compound]
- MIC (M. intracellularie): 0.5 µg/mL (≈ 0.608 µM)
- MIC (M. avium; Mycobacterium avium): 0.5 µg/mL (≈ 0.608 µM)
- MIC (M. scrofulaceum; Mycobacterium scrofulaceum): 0.5 µg/mL (≈ 0.608 µM)
- MIC (M. cansassi): 0.5 µg/mL (≈ 0.608 µM)
- MIC (M. fortuitum; Mycolicibacterium fortuitum): > 4 µg/mL
- MIC (M. tuberculosis W4; [2]): 0.5 µg/mL (≈ 0.608 µM)
- MIC (M. tuberculosis 210; [2]): 0.5 µg/mL (≈ 0.608 µM)
- MIC (M. tuberculosis W; [2]): > 4 µg/mL
- MIC (M. tuberculosis H37Rv; [2]): 0.5 µg/mL (≈ 0.608 µM)
- MIC (M. tuberculosis CDC1551; [2]): 0.5 µg/mL (≈ 0.608 µM)
- MIC (M. tuberculosis P; [2]): > 4 µg/mL
- MIC (M. tuberculosis AB; [2]): 0.5 µg/mL (≈ 0.608 µM)
- MIC (M. bovis BCG; Mycobacterium tuberculosis variant bovis BCG, BCG): 0.5 µg/mL (≈ 0.608 µM)
